Reference: patent US8883763B2 (Universite Joseph Fourier, priority 2010, dated 2014)

How the values were obtained:
PP1α (PP1CA) = biological target: T1, PP1α (PP1CA) (Oryctolagus cuniculus, UniProt P62139); test: Protein phosphatase test (PP1 activity, DiFMUP fluorescent substrate); type: biochemical; conditions: PP1CA at 80 mU, fluorescent substrate (50 μM), molecules from 50 μM to 50 nM; read-out: PP1 Inhibition IC50
T1 construct: purchased New England Biolabs P0754
Method in brief: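 PP1α (30 or 80 mU) in 100 mM Tris-HCl pH 7.5, 4 mM DTT, 0.2 mM EDTA, 0.5 mM MnCl2 was preincubated 15 min with compound (50 μM to 50 nM), then given 60 μM DiFMUP for 20 min at 37 °C. Phosphatase activity was read as fluorescence at 355-460 nm, three times in duplicate.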

bovine brain tubulin = test: In vitro tubulin polymerization test (turbidimetry at 350 nm); type: biochemical; conditions: molecules at 50 μM, calculated at t=3000 s, DMSO control = 100%
Method in brief: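 Bovine brain tubulin was assembled at 37 °C in BRB80 (80 mM K-PIPES pH 6.8, 1 mM MgCl2, 1 mM EGTA) with 1 mM GTP. The 50 μM tests used compounds at 50 μM, run in triplicate. Turbidity at 350 nm was read at t=3000 s and expressed relative to control taken as 100%.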

HeLa cells = test: Indirect immunofluorescence: effect on HeLa cells (mitotic arrest, microtubule depolymerization); type: cell-based, human; parameters: key to Effect on Hela at 25 μM / Effect on Hela at 100 μM / Effect on Hela at 50 and 100 μM / Effect on Hela at 50 μM: —: −: no activity on the cells at 25 μM (if there is an effect at high concentrations, this is specified in the table).; *: weak activity (MA and/or slight depolymerization of the MTs and/or slight inhibition of proliferation),; **: average activity (MA and/or moderate depolymerization of the MTs and/or moderate inhibition of proliferation),; ***: strong activity (MA and/or pronounced depolymerization of the MTs and/or pronounced inhibition of proliferation),; ****: very strong activity (MA and/or very pronounced depolymerization of the MTs and/or strong inhibition of proliferation); conditions: 24 hours; for Effect on Hela at 25 μM: mitotic index and/or depolymerization of the MTs
Method in brief: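 HeLa cells exposed 24 h to compound (100 μM to 50 nM; primary series 1–10 μM), DMSO controls. PFA/glutaraldehyde-fixed cells immunostained for α-tubulin, actin (phalloidin) and DNA (Hoechst); fluorescence microscopy scored phenotypes and mitotic index, with mitotic index and/or MT depolymerization evaluated at 25 μM.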

HMEC cells = test: Proliferation of HMEC cells (GI50); type: cell-based; conditions: Homo sapiens, 120 h, 50 μM to 1 nM for 5 days
Method in brief: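 Cells seeded at 1,000/well (10% confluence) and exposed 5 days (120 h) to compound from 1 nM up to 50–100 μM. Live cells counted by Hoechst 33342 staining under fluorescence microscopy; GI50 is concentration halving proliferation versus control, mean of two triplicate experiments.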

T1 sequence (P62139 whole entry): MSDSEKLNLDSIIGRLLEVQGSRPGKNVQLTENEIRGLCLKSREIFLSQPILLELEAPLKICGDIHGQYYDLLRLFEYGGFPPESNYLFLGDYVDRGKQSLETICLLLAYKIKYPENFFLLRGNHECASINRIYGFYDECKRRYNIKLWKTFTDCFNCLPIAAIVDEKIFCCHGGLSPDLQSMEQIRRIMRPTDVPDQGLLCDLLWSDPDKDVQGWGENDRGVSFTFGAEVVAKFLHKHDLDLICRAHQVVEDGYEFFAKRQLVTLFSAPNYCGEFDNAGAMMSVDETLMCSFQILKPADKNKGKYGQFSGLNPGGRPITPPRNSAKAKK

SMILES | IC50 (PP1α (PP1CA)) | Tubulin polymerization inhibition (bovine brain tubulin) | Effect on Hela at 25 μM (HeLa cells) | GI50 (HMEC cells) | melting point | Effect on Hela at 100 μM (HeLa cells) | Effect on Hela at 50 and 100 μM (HeLa cells)
COc1ccc(-c2[nH]c(=O)c3cc(OC)ccc3c2N2CCCCC2)cc1 [Compound 40, 4-(Piperidin-1-yl)-7-methoxy-3-(4-methoxyphenyl)isoquinoline-1(2H)-one] | > 50 µM | +++ ((+++) signifies that the molecule induces tubulin assembly inhibition in vitro of more than 50% with respect to the DMSO control.) | — | 0.1 to 1 µM | 206 °C |  | 
COc1ccc2c([N+](=O)[O-])c(-c3ccc(OCc4ccccc4)cc3)[nH]c(=O)c2c1 [Compound 46, 3-(4-(Benzyloxy)phenyl)-7-methoxy-4-nitroisoquinolin-1(2H)-one] | 10 to 24 µM | + ((+) signifies that the molecule induces tubulin assembly inhibition in vitro comprised between 6 and 25% of the DMSO control.) | — | > 50 µM | 252 to 254 °C |  | 
COc1ccc(-c2nc(OC)c3cc(OC)ccc3c2[N+](=O)[O-])cc1 [Compound 19, 1,7-Dimethoxy-3-(4-methoxyphenyl)-4-nitroisoquinoline] | 25 to 50 µM | + ((+) signifies that the molecule induces tubulin assembly inhibition in vitro comprised between 6 and 25% of the DMSO control.) | — | > 50 µM | 176 to 178 °C | ** | 
COc1ccc(-c2cc3ccc(OC)cc3c(S(=O)(=O)O)n2)cc1 [Compound 13, 7-methoxy-3-(4-methoxyphenyl)isoquinoline-1-sulphonic acid] | > 50 µM | ++ ((++) signifies that the molecule induces tubulin assembly inhibition in vitro comprised between 26 and 50% of the DMSO control.) | — | > 50 µM | 226 to 228 °C | * | 
COc1ccc(-c2nc(OCC#N)c3cc(OC)ccc3c2[N+](=O)[O-])cc1 [Compound 31, 2-(7-Methoxy-3-(4-methoxyphenyl)-4-nitroisoquinolin-1-yloxy)ethanenitrile] | > 50 µM | ++ ((++) signifies that the molecule induces tubulin assembly inhibition in vitro comprised between 26 and 50% of the DMSO control.) | — | > 50 µM | 192 to 194 °C |  | 
COc1ccc(-c2nc(NCc3ccccc3)c3cc(OC)ccc3c2[N+](=O)[O-])cc1 [Compound 22, N-Benzyl-N-[7-methoxy-3-(4-methoxyphenyl)-4-nitroisoquinoline-1-yl]-amine] | ≤ 9 µM | + ((+) signifies that the molecule induces tubulin assembly inhibition in vitro comprised between 6 and 25% of the DMSO control.) | — | > 50 µM | 199 to 201 °C |  | 
COc1ccc(-c2cc3ccc(OC)cc3c(=S)[nH]2)cc1 [Compound 12, 7-Methoxy-3-(4-methoxyphenyl)isoquinoline-1(2H)-thione] | ≤ 9 µM | ++ ((++) signifies that the molecule induces tubulin assembly inhibition in vitro comprised between 26 and 50% of the DMSO control.) | — | 1 to 25 µM | 188 to 190 °C | * | 
COc1ccc(-c2[nH]c(=O)c3cc(OC)ccc3c2N2CCOCC2)cc1 [Compound 49, 7-Methoxy-3-(4-methoxyphenyl)-4-morpholinoisoquinolin-1(2H)-one] | > 50 µM | + ((+) signifies that the molecule induces tubulin assembly inhibition in vitro comprised between 6 and 25% of the DMSO control.) | ** | 0.1 to 1 µM | 139 °C |  | 
COc1ccc(-c2[nH]c(=O)c3cc(OC)ccc3c2NC=O)cc1 [Compound 24, N-(7-Methoxy-3-(4-methoxyphenyl)-1-oxo-1,2-dihydroisoquinoline-4-yl)methanamide] | > 50 µM | + ((+) signifies that the molecule induces tubulin assembly inhibition in vitro comprised between 6 and 25% of the DMSO control.) | **** | 1 to 25 µM | > 270 °C |  | 
COc1ccc(-c2nc(Sc3ccccc3)c3cc(OC)ccc3c2[N+](=O)[O-])cc1 [Compound 20, 7-Methoxy-3-(4-methoxyphenyl)-4-nitro-1-(phenylethio)isoquinoline] | 25 to 50 µM | ++ ((++) signifies that the molecule induces tubulin assembly inhibition in vitro comprised between 26 and 50% of the DMSO control.) | — | > 50 µM | 169 to 171 °C |  | *
COc1ccc2c([N+](=O)[O-])c(-c3ccc(C#C[Si](C)(C)C)cc3)[nH]c(=O)c2c1 [Compound 35, 7-Methoxy-4-nitro-3-(4-((trimethylsilyl)ethynyl)phenyl)isoquinolin-1(2H)-one] | 10 to 24 µM | — ((−) signifies that the molecule induces little or no tubulin assembly inhibition in vitro: 0+ or − −5% of the DMSO control.) | *** | ≤ 0.1 µM | 178 to 180 °C |  | 
COc1ccc2cc(-c3ccc(O)cc3)[nH]c(=O)c2c1 [Compound 45, 3-(4-Hydroxyphenyl)-7-methoxyisoquinolin-1(2H)-one] | > 50 µM | ++ ((++) signifies that the molecule induces tubulin assembly inhibition in vitro comprised between 26 and 50% of the DMSO control.) | **** | 0.1 to 1 µM | 255 °C |  | 
C#CCn1c(-c2ccc(OC)cc2)c([N+](=O)[O-])c2ccc(OC)cc2c1=O [Compound 28, 7-Methoxy-3-(4-methoxyphenyl)-4-nitro-2-(propargyl)isoquinolin-1(2H)-one] | 25 to 50 µM | — ((−) signifies that the molecule induces little or no tubulin assembly inhibition in vitro: 0+ or − −5% of the DMSO control.) | — | > 50 µM | 162 to 164 °C |  | **
COc1ccc2cc(-c3ccc(C#C[Si](C)(C)C)cc3)[nH]c(=O)c2c1 [Compound 33, 7-Methoxy-3-(4-((trimethylsilyl)ethynyl)phenyl)isoquinolin-1(2H)-one] | > 50 µM | — ((−) signifies that the molecule induces little or no tubulin assembly inhibition in vitro: 0+ or − −5% of the DMSO control.) | — | 25 to 50 µM | 133 to 135 °C |  | 
COc1ccc(-c2nc(SCc3ccccc3)c3cc(OC)ccc3c2[N+](=O)[O-])cc1 [Compound 21, 1-(Benzylthio)-7-methoxy-3-(4-methoxyphenyl)-4-nitroisoquinoline] | 25 to 50 µM | +++ ((+++) signifies that the molecule induces tubulin assembly inhibition in vitro of more than 50% with respect to the DMSO control.) | — | > 50 µM | 148 to 150 °C |  | 
